Measured values taken from patent US4148896A, “Antidepressant combination” (E. I. Du Pont de Nemours and Company, priority 1978, dated 1979).
Like-named read-outs stand apart in the source and are kept apart here.

Tested on: tryptamine-induced stereotypies and hind limb paralysis
Test: Tryptamine potentiation test
Type: in vivo, mice
Settings: for ED50: Mus musculus, po
Procedure: […] […] (60 Mg/kg of tryptamine alone causes this syndrome but it lasts for less than a minute, usually only a few seconds.) The data were analyzed quantally and ED50's calculated.

SMILES: CCc1c(C)[nH]c2c1C(=O)C(CN1CCOCC1)CC2 (centres unmarked) [Molindone, 3-ethyl-6,7-dihydro-2-methyl-5-(morpholinomethyl)indol-4-(5H)-one]
- HIND LIMB PARALYSIS (mice responding) (2.5 mg/kg p.o., 4 Hrs., N=10): 0
- ED50, HIND LIMB PARALYSIS (4 Hrs.): 8.6 mg/kg p.o.
- HEAD TWITCH (mice responding) (5. mg/kg p.o., 4 Hrs., N=10): 0
- HIND LIMB PARALYSIS (mice responding) (5. mg/kg p.o., 4 Hrs., N=10): 1
- ED50, HEAD TWITCH (6 Hrs.): 15 mg/kg p.o.
- HEAD TWITCH (mice responding) (10. mg/kg p.o., 1 Hr., N=10): 1
- HIND LIMB PARALYSIS (mice responding) (10. mg/kg p.o., 1 Hr., N=10): 3
- HEAD TWITCH (mice responding) (10. mg/kg p.o., 2 Hrs., N=10): 2
- HIND LIMB PARALYSIS (mice responding) (10. mg/kg p.o., 2 Hrs., N=10): 8
- HEAD TWITCH (mice responding) (10. mg/kg p.o., 4 Hrs., N=20): 1
- HIND LIMB PARALYSIS (mice responding) (10. mg/kg p.o., 4 Hrs., N=20): 13
- HEAD TWITCH (mice responding) (10. mg/kg p.o., 6 Hrs., N=10): 0
- HIND LIMB PARALYSIS (mice responding) (10. mg/kg p.o., 6 Hrs., N=10): 7
- HEAD TWITCH (mice responding) (10. mg/kg p.o., 24 Hrs., N=10): 0
- HIND LIMB PARALYSIS (mice responding) (10. mg/kg p.o., 24 Hrs., N=10): 0
- HEAD TWITCH (mice responding) (20. mg/kg p.o., 1 Hr., N=10): 3
- HIND LIMB PARALYSIS (mice responding) (20. mg/kg p.o., 1 Hr., N=10): 9
- HEAD TWITCH (mice responding) (20. mg/kg p.o., 2 Hrs., N=10): 3
- HIND LIMB PARALYSIS (mice responding) (20. mg/kg p.o., 2 Hrs., N=10): 10
- HEAD TWITCH (mice responding) (20. mg/kg p.o., 4 Hrs., N=20): 17
- HIND LIMB PARALYSIS (mice responding) (20. mg/kg p.o., 4 Hrs., N=20): 20
- HEAD TWITCH (mice responding) (20. mg/kg p.o., 6 Hrs., N=10): 9
- HIND LIMB PARALYSIS (mice responding) (20. mg/kg p.o., 6 Hrs., N=10): 10
- HEAD TWITCH (mice responding) (20. mg/kg p.o., 24 Hrs., N=10): 0
- HIND LIMB PARALYSIS (mice responding) (20. mg/kg p.o., 24 Hrs., N=10): 0
- HEAD TWITCH (mice responding) (40. mg/kg p.o., 1 Hr., N=10): 5
- HIND LIMB PARALYSIS (mice responding) (40. mg/kg p.o., 1 Hr., N=10): 10
- HEAD TWITCH (mice responding) (40. mg/kg p.o., 2 Hrs., N=10): 5
- HIND LIMB PARALYSIS (mice responding) (40. mg/kg p.o., 2 Hrs., N=10): 10
- HEAD TWITCH (mice responding) (40. mg/kg p.o., 4 Hrs., N=20): 19
- HIND LIMB PARALYSIS (mice responding) (40. mg/kg p.o., 4 Hrs., N=20): 20
- HEAD TWITCH (mice responding) (40. mg/kg p.o., 6 Hrs., N=10): 9
- HIND LIMB PARALYSIS (mice responding) (40. mg/kg p.o., 6 Hrs., N=10): 10
- HEAD TWITCH (mice responding) (40. mg/kg p.o., 24 Hrs., N=10): 0
- HIND LIMB PARALYSIS (mice responding) (40. mg/kg p.o., 24 Hrs., N=10): 0
- HEAD TWITCH (mice responding) (80. mg/kg p.o., 1 Hr., N=10): 0
- HIND LIMB PARALYSIS (mice responding) (80. mg/kg p.o., 1 Hr., N=10): 4
- HEAD TWITCH (mice responding) (80. mg/kg p.o., 2 Hrs., N=10): 1
- HIND LIMB PARALYSIS (mice responding) (80. mg/kg p.o., 2 Hrs., N=10): 4
- HEAD TWITCH (mice responding) (80. mg/kg p.o., 4 Hrs., N=10): 3
- HIND LIMB PARALYSIS (mice responding) (80. mg/kg p.o., 4 Hrs., N=10): 6
- HEAD TWITCH (mice responding) (80. mg/kg p.o., 6 Hrs., N=10): 6
- HIND LIMB PARALYSIS (mice responding) (80. mg/kg p.o., 6 Hrs., N=10): 10
- HEAD TWITCH (mice responding) (80. mg/kg p.o., 24 Hrs., N=10): 0
- HIND LIMB PARALYSIS (mice responding) (80. mg/kg p.o., 24 Hrs., N=10): 0
- HEAD TWITCH (mice responding) (160. mg/kg p.o., 1 Hr., N=10): 0
- HIND LIMB PARALYSIS (mice responding) (160. mg/kg p.o., 1 Hr., N=10): 1
- HEAD TWITCH (mice responding) (160. mg/kg p.o., 2 Hrs., N=10): 0
- HIND LIMB PARALYSIS (mice responding) (160. mg/kg p.o., 2 Hrs., N=10): 4
- HEAD TWITCH (mice responding) (160. mg/kg p.o., 4 Hrs., N=10): 0
- HIND LIMB PARALYSIS (mice responding) (160. mg/kg p.o., 4 Hrs., N=10): 2
- HEAD TWITCH (mice responding) (160. mg/kg p.o., 6 Hrs., N=10): 0
- HIND LIMB PARALYSIS (mice responding) (160. mg/kg p.o., 6 Hrs., N=10): 4
- HEAD TWITCH (mice responding) (160. mg/kg p.o., 24 Hrs., N=10): 2
- HIND LIMB PARALYSIS (mice responding) (160. mg/kg p.o., 24 Hrs., N=10): 2
- ED50 (1 Hr., read-out: ED50, HEAD TWITCH): 40 mg/kg
- ED50 (1 Hr., read-out: ED50, HIND LIMB PARALYSIS): 13 mg/kg
- ED50 (2 Hrs., read-out: ED50, HEAD TWITCH): 40 mg/kg
- ED50 (2 Hrs., read-out: ED50, HIND LIMB PARALYSIS): < 10 mg/kg
- ED50 (4 Hrs., read-out: ED50, HEAD TWITCH): 16.7 mg/kg
- ED50 (4 Hrs., read-out: ED50, HIND LIMB PARALYSIS): 8.6 mg/kg
- ED50 (6 Hrs., read-out: ED50, HEAD TWITCH): 15 mg/kg
- ED50 (6 Hrs., read-out: ED50, HIND LIMB PARALYSIS): < 10 mg/kg
- ED50 (24 Hrs., read-out: ED50, HEAD TWITCH): > 160 mg/kg
- ED50 (24 Hrs., read-out: ED50, HIND LIMB PARALYSIS): > 160 mg/kg
- peak time, head twitch (oral, tryptamine potentiation): 6 h
- peak time, hind limb paralysis (oral, tryptamine potentiation): 4 h
- Effect on the action of tryptamine (oral, at higher doses the potentiation disappears): potentiates the action of tryptamine in a dose-related manner
